Test results as given in paper PMC4413647, “Simultaneous targeting of androgen receptor (AR) and MAPK-interacting kinases (MNKs) by novel retinamides inhibits growth of human prostate cancer cell lines” (Oncotarget, 2014).
Read-outs that look alike come from different tables or passages of the source.

What was measured:
PWR-1E cells = assay: MTT cell proliferation assay, 7 d, PWR-1E; type: cell-based; conditions: Homo sapiens, 168 h, immortalized untransformed prostate cells, 7 d treatment
Excerpt: (§1) Androgen-dependent (LNCaP), androgen-independent (PC-3) and castration resistant (C4-2B and 22Rv1) human prostate carcinoma cells were procured from American Type Culture Collection, Manassas, VA, USA and maintained in RPMI 1640 media (Gibco-Life Technologies, Grand Island, NY, USA) supplemented with 10% fetal bovine serum and 1% penicillin/streptomycin. […] Immortalized untransformed prostate epithelial cells, PWR1E from American Type Culture Collection were maintained in serum-free Keratinocyte media (Gibco) supplemented with epidermal growth factor and bovine pituitary extract. All cell lines were maintained in a 37 °C/5% CO2 humidified atmosphere.
(§2) Cell proliferation assay was performed as described previously. For cell growth experiment, cells were treated with the NRs for 7 days. MTT assay was performed at the end of the experiment. Calculations of combination indices were done using the Calcusyn program (Biosoft, Cambridge, United Kingdom). For colony formation assay, cells were plated 1000 per well in complete media and allowed to adhere for 24 h. The next day cells were treated with indicated compounds (5 μM). After 24 h compound containing media were removed, and cells were allowed to form colonies in complete media. Approximately 2 weeks later the colonies were fixed, stained with 0.5% crystal violet (sigma) for 30 min and counted manually. Results represent the mean ± standard deviation of three independent experiments.

PC-3 cells [1] = assay: MTT cell proliferation assay, 7 d, PC-3; type: cell-based; conditions: Homo sapiens, PC-3, 168 h, 7 d treatment
Excerpt: as §1, §2

22Rv1 cells = assay: MTT cell proliferation assay, 7 d, 22Rv1; type: cell-based; conditions: Homo sapiens, 22Rv1, 168 h, 7 d treatment
Excerpt: as §1, §2

C4-2B cells = assay: MTT cell proliferation assay, 7 d, C4-2B; type: cell-based; conditions: Homo sapiens, 168 h, 7 d treatment
Excerpt: as §1, §2

MR49F cells = assay: MTT growth inhibition in Enzalutamide resistant MR49F cells; type: cell-based, human; conditions: for GI50: Homo sapiens, MR49F
Procedure: Figure 2 Effect of NRs on PCa cell growth and colony formation (A) Representative photographs of colonies formed in PCa cells at 14th day after initial treatment with specified compounds (5 μmol/L). Colonies were fixed with methanol and stained with crystal violet. (B) Data represents the mean ± S.E from three independent experiments. *, P< 0.05; ♣, P<0.01 compared to vehicle treated control. […] NRs that had promising inhibitory effect on cell proliferation on LNCaP cells were tested for their growth inhibitory effect in MR49F cells in comparison with Casodex and Abiraterone acetate by MTT assay.
as §1, §2

LNCaP cells = assay: MTT cell proliferation assay, 7 d, LNCaP; type: cell-based, human; conditions: Homo sapiens, LNCaP, 168 h, 7 d treatment
Excerpt: as §1, §2

PCa cells = assay: MTT cell viability in PCa cells (LNCaP, PC-3, C4-2B, 22Rv1); type: cell-based, human; conditions: for GI50: Homo sapiens, range over PCa cell lines; for growth inhibitory effect or differential sensitivity: PCa cells vs untransformed cells
Procedure: as §2

PC-3 cells [2] = assay: Wound healing migration assay; type: cell-based, human; conditions: 5 μM, 24 h
Procedure: Figure 5 Anti-migratory and anti-invasive potential of NRs (A) Effect of NRs treatment (5 μmol/L) on PC-3 cell migration was assessed by wound healing assay after 24 h of wound formation. Representative photomicrographs of initial and final wounds are shown at 100x magnification. (B) Effect of NRs on PC-3 cell invasion was evaluated by transwell migration assay. PC-3 cells were seeded on matrigel coated boyden chamber and treated with NRs (5 μmol/L, 24 h). Photographs represent the extent of cell invasion in each of the treated cells. (C) Western blot analysis of the effect of NRs on the expression of cadherins in PC-3 cells. Cells were treated with indicated compound 20 μmol/L for 24 h. […] For wound healing assay highly metastatic PC-3 cells were plated in a 24 well plate at a seeding density of 5 × 10^5 cells/ well and allowed to form a confluent monolayer for 24 h. Cells were made dormant by pretreating with 0.5 μmol/L mitomycin C for 2 h to ensure that wounds are filled due to cell migration and not by cell proliferation. Subsequently, the monolayer was scratched with a pipette tip, washed with media to remove floating cells, and photographed (time 0 h). Cells were then treated with indicated compounds (5 μM) and the experiment was terminated as soon as wound was completely filled in vehicle treated controls. Cells were then photographed again using Nikon TE2000 microscope at three randomly selected sites per well [43].

Bax, cleaved PARP-1 = assay: Western blot of Bax and cleaved PARP-1 in PCa cells; type: cell-based, human; conditions: 20 μM, 24 h, among the lead NRs
Procedure: Figure 4 Effect of NRs on cell cycle and apoptosis (A) LNCaP cells treated with 5 μM of NRs and other compounds for 24 h were stained with PI and analysed with a FACS calibur flow cytometer. (B) Total cell lysates from PCa cells treated with 20 μM of NRs were separated by SDS-PAGE and probed with cyclin D1 and B antibodies. […] (C) LNCaP cells were treated with indicated compounds (5 μmol/L) for 24 h and apoptosis induction was examined by oligonucleosomal fragmentation. Data are shown relative to vehicle treated control and the bars are means of three replicate determinations plus standard deviations. *, P< 0.01; ♣, P<0.05 compared with vehicle treated control. (D) PCa cells as indicated were seeded in 24 well plate, and treated with 5 μmol/L of NRs the subsequent day. After 24 h the plates were analyzed for apoptotic and viable cells using acridine orange/ethidium bromide staining. (E) Western blot analysis of apoptosis associated Bax and cPARP in PCa cells treated with NRs (20 μmol/L) for 24 h. (F) Apoptosis induction in LNCaP cells treated with 5 μmol/L of VNLG-147 and -152 in the presence or absence of ZVAD (5 μmol/L) was assessed by oligonucleosomal fragmentation after 24 h incubation. *, P< 0.05 compared with vehicle treated control. […]

PC-3 cells [3] = assay: Boyden chamber matrigel invasion assay; type: cell-based, human; conditions: PC-3, 5 μM, 24 h
Procedure: Figure 5 Anti-migratory and anti-invasive potential of NRs (A) Effect of NRs treatment (5 μmol/L) on PC-3 cell migration was assessed by wound healing assay after 24 h of wound formation. Representative photomicrographs of initial and final wounds are shown at 100x magnification. (B) Effect of NRs on PC-3 cell invasion was evaluated by transwell migration assay. PC-3 cells were seeded on matrigel coated boyden chamber and treated with NRs (5 μmol/L, 24 h). Photographs represent the extent of cell invasion in each of the treated cells. (C) Western blot analysis of the effect of NRs on the expression of cadherins in PC-3 cells. Cells were treated with indicated compound 20 μmol/L for 24 h.
The invasion assay in PC-3 cells was performed using Matrigel (BD Biosciences, Bedford, MA, USA)-coated transwell cell culture chambers (8 μm pore size, EMD Millipore, Temecula, CA, USA) as described previously (43). Briefly, PC-3 cells (5 × 10^4 cells/well) were cultured in the upper chamber of the transwell insert for 24 h in serum-free RPMI-1640 medium. The cells were then treated with 5 μM of indicated compounds for 24 h. RPMI-1640 medium containing 10% FBS was placed in the lower chamber. At the end of incubation, the top surface of the non-migrated cells were scraped gently with cotton swabs and the cells on the lower surface of the membrane (migrated cells) were fixed for 15 min with cold methanol and stained with crystal violet. Cells that had migrated to the bottom of the membrane were visualized and counted using an inverted microscope. For each replicate (n = 3), cells in three randomly selected fields were counted and averaged.

[4] = DHT induced, read-out: GI50 LNCaP, DHT induced
[5] = read-out: GI50 MR49F (Figure 2C)

Row | Structure (SMILES) | GI50 (PC-3 cells [1]) [µM] | GI50 (22Rv1 cells) [µM] | GI50 (LNCaP cells; read-out: GI50 LNCaP) [µM] | GI50 (LNCaP cells; [4]) [µM] | GI50 (PCa cells) [µM] | GI50 (PWR-1E cells) [µM] | GI50 (C4-2B cells) [µM] | GI50 (MR49F cells; read-out: GI50 MR49F) [µM] | GI50 (MR49F cells; [5]) [µM] | effect on growth of MR49F cells (MR49F cells; up to a concentration of 100 μmol/L) | growth inhibitory effect or differential sensitivity (PCa cells) | PC-3 cell migration to the denuded zone (PC-3 cells [2]) | efficacy in inducing PARP cleavage and/or increasing Bax expression (Bax, cleaved PARP-1) | percentage of cell invasion compared to control (PC-3 cells [3])
1 | CC(=O)O[C@H]1CC[C@@]2(C)C(=CC[C@@H]3[C@@H]2CC[C@]2(C)C(c4cccnc4)=CC[C@@H]32)C1 [AA, Abiraterone acetate, reference compound] | 7.62 | 2.97 | 2.45 | 2.69 | – | 20.2 | 1.47 | 27.5 | – | – | – | – | – | –
2 | CC1=C(/C=C/C(C)=C/C=C/C(C)=C/C(=O)O)C(C)(C)CCC1 [ATRA, all-trans-retinoic acid, reference compound] | 36.3 | 25.1 | 47.9 | 39.8 | – | 75.3 | 11.7 | – | – | – | – | – | – | –
3 | CC(O)(CS(=O)(=O)c1ccc(F)cc1)C(=O)Nc1ccc(C#N)c(C(F)(F)F)c1 (centres unmarked) [Casodex, reference compound] | 9.15 | 3.81 | 2.61 | 2.95 | – | 69.1 | 1.51 | 43.6 | – | – | – | – | – | –
4 | CC1=C(/C=C/C(C)=C/C=C/C(C)=C/C(=O)Nc2ccc(O)cc2)C(C)(C)CCC1 [Compound 4-HPR, 4-hydroxyphenyl retinamide, reference compound] | 3.54 | 3.23 | 2.69 | 2.45 | – | 1.07 | 3.11 | – | – | – | – | – | – | –
5 | CNC(=O)c1ccc(N2C(=S)N(c3ccc(C#N)c(C(F)(F)F)c3)C(=O)C2(C)C)cc1F [MDV3100, Enzalutamide, reference compound] | – | – | – | – | – | 17 | 1.54 | – | > 100 | no significant effect | – | – | – | –
6 | CC1=C(/C=C/C(C)=C/C=C/C(C)=C/C(=O)O)C(C)(C)CCC1n1ccnc1 (centres unmarked) [VN/14-1] | 36.3 | 12.9 | 11.3 | 12.9 | – | 69.2 | 9.76 | – | – | – | – | – | – | –
7 | CC1=C(/C=C/C(C)=C/C=C/C(C)=C/C(=O)Nc2ccc(O)cc2)C(C)(C)CCC1n1ccnc1 (centres unmarked) [VN/66-1] | 10.7 | 2.95 | 4.67 | 1.54 | – | 19.1 | 2.38 | – | 6.76 | – | – | – | – | –

Now from value to compound, other results behind:

Row | GI50 (PC-3 cells [1]) [µM] | GI50 (22Rv1 cells) [µM] | GI50 (LNCaP cells; read-out: GI50 LNCaP) [µM] | GI50 (LNCaP cells; [4]) [µM] | GI50 (PCa cells) [µM] | Structure (SMILES) | GI50 (PWR-1E cells) [µM] | GI50 (C4-2B cells) [µM] | GI50 (MR49F cells; read-out: GI50 MR49F) [µM] | GI50 (MR49F cells; [5]) [µM] | effect on growth of MR49F cells (MR49F cells; up to a concentration of 100 μmol/L) | growth inhibitory effect or differential sensitivity (PCa cells) | PC-3 cell migration to the denuded zone (PC-3 cells [2]) | efficacy in inducing PARP cleavage and/or increasing Bax expression (Bax, cleaved PARP-1) | percentage of cell invasion compared to control (PC-3 cells [3])
8 | 4.26 | 2.23 | 2.45 | 2.23 | 1.5 to 5.5 | CC1=C(/C=C/C(C)=C/C=C/C(C)=C/C(=O)NC(C)(C)C)C(C)(C)CCC1n1ccnc1 (centres unmarked) [VNLG-145] | 25.1 | 2.14 | – | 3.89 | – | – | – | – | –
9 | 57.5 | 39.8 | 57.5 | 52.5 | – | CC1=C(/C=C/C(C)=C/C=C/C(C)=C/C(=O)Nc2cc(C(F)(F)F)ccc2C(F)(F)F)C(C)(C)CCC1n1ccnc1 (centres unmarked) [VNLG-146] | 63.1 | 11.7 | – | – | – | did not display any notable growth inhibitory effect or differential sensitivity | – | – | –
10 | 2.95 | 2.04 | 1.86 | 1.41 | 1.5 to 5.5 | CC1=C(/C=C/C(C)=C/C=C/C(C)=C/C(=O)Nc2ccccc2O)C(C)(C)CCC1n1ccnc1 (centres unmarked) [VNLG-147] | 71.5 | 2.66 | – | 4.26 | – | – | potentially suppressed | greater efficacies | 33
11 | 36.3 | 39.8 | 22.9 | 19.1 | – | CC1=C(/C=C/C(C)=C/C=C/C(C)=C/C(=O)Nc2ncnc3[nH]cnc23)C(C)(C)CCC1n1ccnc1 (centres unmarked) [VNLG-148] | 43.6 | 15.5 | – | – | – | did not display any notable growth inhibitory effect or differential sensitivity | – | – | –
12 | 4.36 | 2.23 | 3.23 | 2.69 | 1.5 to 5.5 | CC1=C(/C=C/C(C)=C/C=C/C(C)=C/C(=O)Nc2ccccc2)C(C)(C)CCC1n1ccnc1 (centres unmarked) [VNLG-153] | 39.8 | 2.97 | – | 7.41 | – | – | potentially suppressed | – | 35
